Structures can show the parent of a compound that is named as a salt.

For assay [1], the system named is noradrenaline (NA) in brain stem. The assay can be described thus: Catecholamine determination: noradrenaline in brain stem after oral administration. It is filed as in vivo, Wistar rats. The following applies: 10 mg/kg oral; for NA in Br.s (% Control): rat brain stem noradrenaline, 15 h post-dose, mean±SD of 4 rats; for effect on levels of NA in CNS tissues such as brain stem: rat. As to the method:
Catecholamines quantification in brain stem was performed as previously described (Bonifacio, M. J.; Sousa, F.; Neves, M.; Palma, N.; Igreja, B.; Pires, N. M.; Wright, L. C.; Soares-da-Silva, P. “Characterization of the interaction of the novel anthyhypertensive etamicastat with human dopamine-beta-hydroxylase: comparison with nepicastat.” Eur. J. Pharmacol. 751, 50-58, 2015) with minor modifications. Test compounds were prepared in 40% of kleptose at a concentration of 2.5 mg/ml to be administered at a dose of 10 mg/kg. Compounds and vehicle (kleptose 40%) were administered to Wistar rats and tissues (brain stem or heart left ventricle) collected in perchloric acid (0.2M) at defined time points after administration. Tissues were stored overnight at 4° C. and the solution was then filtered by centrifugation (1500 g, 4 min, 4° C.) through 0.22 μm pore size filters (Costar Spin-x from Corning Inc., USA). Catecholamines were quantified in filtrates by directly injecting 50 μl of sample volume on a HPLC system with electrochemical detection, using a Spheri-5RP-185 mm column (Perkin-Elmer). Mobile phase consisted of a solution containing 0.1M citric acid, 0.1M sodium acetate, 0.15 mM EDTA, 1 mM dibutylamine, 1 mM octylsulfate, and 5% methanol adjusted to pH 3.5 with perchloric acid.

Assay [2] concerns the target T1, Dopamine beta hydroxylase (Homo sapiens, UniProt P09172).
T1 construct: 125 μl of plasma; tissue Instituto Português do Sangue Transplantação; host or cells: human plasma from healthy donors
T1 sequence (P09172 40-617 limits assumed): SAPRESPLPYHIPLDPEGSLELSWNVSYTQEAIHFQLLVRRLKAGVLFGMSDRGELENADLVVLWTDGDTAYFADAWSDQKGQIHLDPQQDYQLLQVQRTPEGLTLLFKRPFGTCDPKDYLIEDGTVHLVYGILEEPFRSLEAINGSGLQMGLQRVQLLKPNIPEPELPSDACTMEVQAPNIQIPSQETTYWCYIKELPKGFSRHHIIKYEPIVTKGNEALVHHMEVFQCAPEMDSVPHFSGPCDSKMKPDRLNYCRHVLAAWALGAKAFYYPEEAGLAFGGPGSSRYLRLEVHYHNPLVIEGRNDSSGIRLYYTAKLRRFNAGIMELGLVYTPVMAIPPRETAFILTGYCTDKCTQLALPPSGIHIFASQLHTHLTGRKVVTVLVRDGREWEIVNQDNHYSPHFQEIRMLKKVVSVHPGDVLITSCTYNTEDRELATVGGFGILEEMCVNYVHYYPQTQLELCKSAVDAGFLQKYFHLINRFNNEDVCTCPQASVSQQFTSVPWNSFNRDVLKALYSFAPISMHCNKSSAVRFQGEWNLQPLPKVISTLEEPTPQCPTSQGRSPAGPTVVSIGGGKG
Nature of the assay: Dopamine beta hydroxylase activity in human plasma. It is filed as biochemical. The following applies: for Plasma (0.01 μM), activity in % of control: inhibitor 0.01 μM; for Plasma (0.1 μM), activity in % of control: inhibitor 0.1 μM. Put shortly: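 Healthy-donor human plasma pre-incubated 10 min at 37° C with compound at final 10, 100 or 1000 nM in pH 5.0 acetate buffer with ascorbate, fumarate, pargyline, N-ethylmaleimide, catalase and copper sulfate. Tyramine substrate then added for 45 min; octopamine formed was isolated by SCX cartridge, periodate-converted and read at 330 nm; activity given as % control.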

On to `Cn1c(CC(=O)O)c2n(c1=S)C[C@@]1(c3c(F)ccc(Cl)c3F)C[C@@H]21` [Example 231, 2-((5aS,6aR)-5a-(3-chloro-2,6-difluorophenyl)-2-methyl-3-thioxo-2,3,5,5a,6,6a-hexahydrocyclopropa[3,4]pyrrolo[1,2-c]imidazol-1-yl)acetic Acid], for which, in assay [1], the “NA in Br.s (% Control)” value was 99 ± 14 % Control and the “effect on levels of NA in CNS tissues such as brain stem” value (shortened to “effect on levels of NA”) was “failed to reduce levels of NA”. For the same compound, in assay [2], the “Plasma (0.01 μM), activity in % of control” value is 35.9 % of control and the “Plasma (0.1 μM), activity in % of control” value is 5.6 % of control.

For `Fc1ccc(Br)c(F)c1[C@@H]1Cc2c(CCN3CCOCC3)[nH]c(=S)n2C1` [Example 195, (S)-6-(3-bromo-2,6-difluorophenyl)-1-(2-morpholinoethyl)-2,5,6,7-tetrahydro-3H-pyrrolo[1,2-c]imidazole-3-thione], in assay [1], the “NA in Br.s (% Control)” value is recorded as 123 ± 55 % Control and the “effect on levels of NA” value is “failed to reduce levels of NA”. In assay [2], the “Plasma (0.01 μM), activity in % of control” value was 77.3 % of control and the “Plasma (0.1 μM), activity in % of control” value is 41.7 % of control.

Regarding `Cl.Fc1ccc(Cl)cc1[C@]12C[C@H]1c1c(CCN3CCOCC3)[nH]c(=S)n1C2` [Example 174, (5aS,6aR)-5a-(5-chloro-2-fluorophenyl)-1-(2-morpholinoethyl)-5,5a,6,6a-tetrahydrocyclopropa[3,4]pyrrolo[1,2-c]imidazole-3(2H)-thione hydrochloride], in assay [1], the “NA in Br.s (% Control)” value is on record as 84 ± 8 % Control and the “effect on levels of NA” value is listed as “failed to reduce levels of NA”. Moreover, the “Plasma (0.1 μM), activity in % of control” value in assay [2] is 52.7 % of control. Besides, the “Plasma (1 μM), activity in % of control” value in assay [2] (inhibitor 1 μM) is 8.5 % of control.

For `CN(C(=O)Cc1c2n(c(=S)n1C)C[C@@]1(c3c(F)ccc(Cl)c3F)C[C@@H]21)C1COC1` [Example 403, 2-((5aS,6aR)-5a-(3-chloro-2,6-difluorophenyl)-2-methyl-3-thioxo-2,3,5,5a,6,6a-hexahydrocyclopropa[3,4]pyrrolo[1,2-c]imidazol-1-yl)-N-methyl-N-(oxetan-3-yl)acetamide], in assay [1], the “NA in Br.s (% Control)” value is recorded as 87 ± 16 % Control and the “effect on levels of NA” value is “failed to reduce levels of NA”. In assay [2], the “Plasma (0.01 μM), activity in % of control” value is on record as 29.9 % of control and the “Plasma (0.1 μM), activity in % of control” value was 4.8 % of control.

In the case of `F.Fc1ccc(Br)cc1[C@]12C[C@H]1c1c(CCN3CCOCC3)[nH]c(=S)n1C2` [Example 191, (5aS,6aR)-5a-(5-bromo-2-fluorophenyl)-1-(2-morpholinoethyl)-5,5a,6,6a-tetrahydrocyclopropa[3,4]pyrrolo[1,2-c]imidazole-3(2H)-thione hydrofluoride], in assay [1], the “NA in Br.s (% Control)” value was determined as 83 ± 10 % Control and the “effect on levels of NA” value is on record as “failed to reduce levels of NA”. Also, in assay [2], the “Plasma (0.01 μM), activity in % of control” value is on record as 82.3 % of control and the “Plasma (0.1 μM), activity in % of control” value is 26.0 % of control.

On to `Fc1cc(F)c(F)c([C@H]2Cc3c(CCCN4CCCC4)[nH]c(=S)n3C2)c1F` [Example 219, (R)-1-(3-(pyrrolidin-1-yl)propyl)-6-(2,3,5,6-tetrafluorophenyl)-2,5,6,7-tetrahydro-3H-pyrrolo[1,2-c]imidazole-3-thione hydrochloride], for which, in assay [1], the “NA in Br.s (% Control)” value amounted to 92 ± 23 % Control and the “effect on levels of NA” value is recorded as “failed to reduce levels of NA”. In addition, in assay [2], the “Plasma (0.01 μM), activity in % of control” value is 69.9 % of control and the “Plasma (0.1 μM), activity in % of control” value is recorded as 19.7 % of control.

On to `Cl.Cn1c(CCN[C@@H]2CCOC2)c2n(c1=S)C[C@H](c1c(F)ccc(Br)c1F)C2` [Example 256, (S)-6-(3-bromo-2,6-difluorophenyl)-2-methyl-1-(2-(((R)-tetrahydrofuran-3-yl)amino)ethyl)-2,5,6,7-tetrahydro-3H-pyrrolo[1,2-c]imidazole-3-thione hydrochloride], for which, in assay [1], the “NA in Br.s (% Control)” value was found to be 128 ± 64 % Control and the “effect on levels of NA” value was “failed to reduce levels of NA”. Also, in assay [2], the “Plasma (0.01 μM), activity in % of control” value is listed as 61.7 % of control and the “Plasma (0.1 μM), activity in % of control” value is 29.2 % of control.
